According to US20210386068A1, “COMPOSITIONS COMPRISING PYRIDINE CARBOXYLATE HERBICIDES AND VERY LONG CHAIN FATTY ACID (VLCFA) SYNTHESIS INHIBITOR HERBICIDES” (priority 2018, published 2021):
Values joined by “and” are separate entries in the source; they are usually repeats but may differ in a detail not shown here. Identical values can stand only once.

How the values were obtained:
[1] = test system: Brassica napus (winter rape, BRSNW); test: Greenhouse postemergence herbicidal effect, visual injury 20-22 d after spraying, winter rape (BRSNW); assay type: in vivo; conditions: for % visual injury Obs: BRSNW
Description: (§1) Seeds of the desired test plant species were planted in a 90:10% v/v (volume/volume) mixture of PRO-MIX® BX (Premier Tech Horticulture, Quakertown, Pa., USA) and PROFILE® GREENS GRADE™ (Profile Products LLC, Buffalo Grove, Ill., USA) planting mixture, which typically has a pH of 5.2 to 6.2 and an organic matter content of at least 50 percent, in plastic pots with a surface area of 103.2 square centimeters (cm^2). In some aspects, to ensure good germination and healthy plants, a fungicide treatment and/or other chemical or physical treatment was applied. The plants were grown for 7-36 days (d) in a greenhouse with an approximate 14-hour (h) photoperiod which was maintained at about 23° C. during the day and 22° C. during the night. Nutrients and water were added on a regular basis and supplemental lighting was provided with overhead metal halide 1000-Watt lamps as necessary. The plants were employed for testing when they reached the second or third true leaf stage.
(§2) Emulsifiable concentrates of each of each pyridine carboxylate herbicide (Compound A or Compound B) were prepared at 100 grams acid equivalent per liter (g ae/L). The emulsifiable concentrates also included a safener, cloquintocet-mexyl, at 120 grams active ingredient per liter (g ai/L). An aliquot of each emulsifiable concentrate was placed in a 25 mL glass vial and diluted with an aqueous mixture of 1.25% (v/v) ACTIROB® B esterified rapeseed oil (Bayer Crop Science, Research Triangle Park, N.C., USA) or MSO® Concentrate with LECI-TECH® methylated soybean oil (Loveland Products, Loveland, Colo., USA) to obtain concentrated stock solutions at the highest application rate for each herbicide, based upon a 12 milliliter (mL) application volume at a rate of 187 liters per hectare (L/ha). The concentrated stock solutions were further diluted with an aqueous mixture of 1.25% v/v ACTIROB® B or MSO® Concentrate with LECI-TECH® to obtain stock solutions at reduced application rates for each herbicide. Spray solutions of the herbicide combinations (Compound A or Compound B plus VLCFA synthesis inhibitor herbicide) were prepared by adding weighed amounts or aliquots of the VLCFA synthesis inhibitor herbicide to the stock solutions of Compound A or Compound B to form 12-mL spray solutions in two-way combinations.
(§3) The spray solutions were applied to the plant material with an overhead Mandel track sprayer equipped with 8002E nozzles calibrated to deliver 187 L/ha over an application area of 0.503 square meters (m^2) at a spray height of 18 inches ([…] (cm)) above the average plant canopy. Control plants were sprayed in the same manner with the solvent blank. All pyridine carboxylate herbicide (component a) application rates are given as “g ae/ha” and all VLCFA synthesis inhibitor herbicide (component b) application rates are given as “g ai/ha.”
(§4) The treated plants and control plants were placed in a greenhouse as described above and watered by sub-irrigation to prevent wash-off of the test compounds. After 20-22 d, the condition of the test plants as compared with that of the control plants was determined visually and scored on a scale of 0 to 100 percent where 0 corresponds to no injury and 100 corresponds to complete kill.

[2] = test system: Polygonum convolvulus (wild buckwheat, POLCO); test: Greenhouse postemergence herbicidal effect, visual injury 20-22 d after spraying, wild buckwheat (POLCO); assay type: in vivo
Description: as §1, §2, §3, §4

[3] = test system: Sinapis arvensis (wild mustard, SINAR); test: Greenhouse postemergence herbicidal effect, visual injury 20-22 d after spraying, wild mustard (SINAR); assay type: in vivo; conditions: for % visual injury Obs: SINAR
Description: as §1, §2, §3, §4

[4] = test system: Chenopodium album L. (common lambsquarters, CHEAL); test: Greenhouse postemergence herbicidal effect, visual injury 20-22 d after spraying, common lambsquarters (CHEAL); assay type: in vivo
Description: as §1, §2, §3, §4

[5] = test system: Amaranthus retroflexus (pigweed, AMARE); test: Greenhouse postemergence herbicidal effect, visual injury 20-22 d after spraying, pigweed (AMARE); assay type: in vivo
Description: as §1, §2, §3, §4

[6] = test system: Matricaria chamomilla (wild chamomile, MATCH); test: Greenhouse postemergence herbicidal effect, visual injury 20-22 d after spraying, wild chamomile (MATCH); assay type: in vivo
Description: as §1, §2, §3, §4

[7] = test system: Viola tricolor (wild pansy, VIOTR); test: Greenhouse postemergence herbicidal effect, visual injury 20-22 d after spraying, wild pansy (VIOTR); assay type: in vivo; conditions: for % visual injury Obs: VIOTR
Description: as §1, §2, §3, §4

[8] = test system: Helianthus annuus (common sunflower, HELAN); test: Greenhouse postemergence herbicidal effect, visual injury 20-22 d after spraying, common sunflower (HELAN); assay type: in vivo
Description: as §1
Emulsifiable concentrates of each of each pyridine carboxylate herbicide (Compound A or Compound B) were prepared at 100 grams acid equivalent per liter (g ae/L). The emulsifiable concentrates also included a safener, cloquintocet-mexyl, at 120 grams active ingredient per liter (g ai/L). […]
as §4

[9] = test system: Veronica persica (Persian speedwell, VERPE); test: Greenhouse postemergence herbicidal effect, visual injury 20-22 d after spraying, Persian speedwell (VERPE); assay type: in vivo
Description: as §1, §2, §3, §4

[10] = test system: Veronica hederifolia (ivy-leaved speedwell, VERHE); test: Greenhouse postemergence herbicidal effect, visual injury 20-22 d after spraying, ivy-leaved speedwell (VERHE); assay type: in vivo
Description: as §1, §2, §3, §4

[11] = test system: Matricaria inodora (scentless chamomile, MATIN); test: Greenhouse postemergence herbicidal effect, visual injury 20-22 d after spraying, scentless chamomile (MATIN); assay type: in vivo
Description: as §1, §2, §3, §4

[12] = test system: Papaver rhoeas (common poppy, PAPRH); test: Greenhouse postemergence herbicidal effect, visual injury 20-22 d after spraying, common poppy (PAPRH); assay type: in vivo
Description: as §1, §2, §3, §4

[13] = test system: Lamium purpureum (purple deadnettle, LAMPU); test: Greenhouse postemergence herbicidal effect, visual injury 20-22 d after spraying, purple deadnettle (LAMPU); assay type: in vivo
Description: as §1, §2, §3, §4

[14] = test system: Viola arvensis (field pansy, VIOAR); test: Greenhouse postemergence herbicidal effect, visual injury 20-22 d after spraying, field pansy (VIOAR); assay type: in vivo
Description: as §1, §2, §3, §4

[15] = test system: Anthemis arvensis (corn chamomile, ANTAR); test: Greenhouse postemergence herbicidal effect, visual injury 20-22 d after spraying, corn chamomile (ANTAR); assay type: in vivo
Description: as §1, §2, §3, §4

[16] = test system: Cyanus segetum (cornflower, CENCY); test: Greenhouse postemergence herbicidal effect, visual injury 20-22 d after spraying, cornflower (CENCY); assay type: in vivo
Description: as §1, §2, §3, §4

winter wheat (TRZAW) = test: Greenhouse postemergence crop phytotoxicity, visual injury 20-22 d after spraying, winter wheat (TRZAW); assay type: in vivo, Triticum aestivum
Description: as §1, §2, §3, §4

## N#CCOC(=O)c1nc(-c2ccc3cc[nH]c3c2F)c(F)c(N)c1Cl [Compound A, cyanomethyl 4-amino-3-chloro-5-fluoro-6-(7-fluoro-1H-indol-6-yl)pyridine-2-carboxylate]
[1]; Compound A 7.5 g/ha alone
  % visual injury Obs: 35%
[1]; Compound A 10 g/ha alone
  % visual injury Obs: 43% and 40%
[1]; Compound A 7.5 g/ha
  % visual injury BRSNW Obs: 60%
[1]; Compound A 10 g/ha
  % visual injury BRSNW Obs: 65%
[1]; Compound A 15 g/ha
  % visual injury BRSNW Obs: 73%
[2]; Compound A 7.5 g/ha
  % visual injury POLCO Obs: 65%
[2]; Compound A 10 g/ha
  % visual injury POLCO Obs: 78%
[2]; Compound A 15 g/ha
  % visual injury POLCO Obs: 85%
[3]; Compound A 7.5 g/ha
  % visual injury SINAR Obs: 88%
[3]; Compound A 10 g/ha
  % visual injury SINAR Obs: 91%
[3]; Compound A 15 g/ha
  % visual injury SINAR Obs: 91%
[3]; Compound A 7.5 g/ha alone
  % visual injury Obs: 88% and 85% and 83%
[3]; Compound A 10 g/ha alone
  % visual injury Obs: 90% and 92% and 88%
[4]; Compound A 7.5 g/ha alone
  % visual injury Obs: 88% and 70% and 60% and 75%
[4]; Compound A 10 g/ha alone
  % visual injury Obs: 93% and 83% and 90% and 80%
[5]; Compound A 7.5 g/ha alone
  % visual injury Obs: 78% and 80% and 70% and 90%
[5]; Compound A 10 g/ha alone
  % visual injury Obs: 73% and 85% and 98%
[6]; Compound A 7.5 g/ha
  % visual injury MATCH Obs: 23%
[6]; Compound A 10 g/ha
  % visual injury MATCH Obs: 35%
[6]; Compound A 15 g/ha
  % visual injury MATCH Obs: 45%
[7]; Compound A 7.5 g/ha
  % visual injury VIOTR Obs: 13%
[7]; Compound A 10 g/ha
  % visual injury VIOTR Obs: 15%
[7]; Compound A 15 g/ha
  % visual injury VIOTR Obs: 15%
[7]; Compound A 7.5 g/ha alone
  % visual injury Obs: 3%
[7]; Compound A 10 g/ha alone
  % visual injury Obs: 3%
[8]; Compound A 7.5 g/ha alone
  % visual injury Obs: 83%
[8]; Compound A 10 g/ha alone
  % visual injury Obs: 88%
[9]; Compound A 7.5 g/ha
  % visual injury VERVE Obs: 78%
[9]; Compound A 10 g/ha
  % visual injury VERVE Obs: 90%
[9]; Compound A 15 g/ha
  % visual injury VERVE Obs: 93%
[10]; Compound A 7.5 g/ha
  % visual injury VERHE Obs: 68%
[10]; Compound A 10 g/ha
  % visual injury VERHE Obs: 73%
[10]; Compound A 15 g/ha
  % visual injury VERHE Obs: 75%
[11]; Compound A 7.5 g/ha
  % visual injury MATIN Obs: 55%
[11]; Compound A 10 g/ha
  % visual injury MATIN Obs: 60%
[11]; Compound A 15 g/ha
  % visual injury MATIN Obs: 83%
[12]; Compound A 7.5 g/ha
  % visual injury PAPRH Obs: 100%
[12]; Compound A 10 g/ha
  % visual injury PAPRH Obs: 99%
[12]; Compound A 15 g/ha
  % visual injury PAPRH Obs: 100%
[13]; Compound A 7.5 g/ha
  % visual injury LAMPU Obs: 68%
[13]; Compound A 10 g/ha
  % visual injury LAMPU Obs: 73%
[13]; Compound A 15 g/ha
  % visual injury LAMPU Obs: 73%
[14]; Compound A 7.5 g/ha
  % visual injury VIOAR Obs: 10%
[14]; Compound A 10 g/ha
  % visual injury VIOAR Obs: 13%
[14]; Compound A 15 g/ha
  % visual injury VIOAR Obs: 10%
[15]; Compound A 7.5 g/ha
  % visual injury ANTAR Obs: 68%
[15]; Compound A 10 g/ha
  % visual injury ANTAR Obs: 70%
[15]; Compound A 15 g/ha
  % visual injury ANTAR Obs: 88%
[16]; Compound A 7.5 g/ha
  % visual injury CENCY Obs: 75%
[16]; Compound A 10 g/ha
  % visual injury CENCY Obs: 78%
[16]; Compound A 15 g/ha
  % visual injury CENCY Obs: 80%
Winter wheat (TRZAW); Compound A 7.5 g/ha
  % visual injury TRZAW Obs: 0%
Winter wheat (TRZAW); Compound A 10 g/ha
  % visual injury TRZAW Obs: 0%
Winter wheat (TRZAW); Compound A 15 g/ha
  % visual injury TRZAW Obs: 0%
